Common to all, as to assay: Kinase selectivity, scanMAX Kinase assay panel (DiscoverX), % control at 1 uM
What all share (assay type): binding

The target of assay [1] is T1, scanMAX Kinase assay panel (Homo sapiens, UniProt P21127).
T1 construct: purchased DiscoverX
Particulars: CDC2L1; 1 uM; read-out: Percent Control (%). The essentials: (§1)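 Compounds were tested at 1 uM in DMSO against each enzyme in the panel. Percent control was calculated as (compound − positive control)/(negative control − positive control) × 100, and a compound was scored active on a kinase when this value fell below 35.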

Assay [2] addresses T2, scanMAX Kinase assay panel (Homo sapiens, UniProt Q9UHD2).
T2 construct: purchased DiscoverX
T2 sequence (Q9UHD2 1-729): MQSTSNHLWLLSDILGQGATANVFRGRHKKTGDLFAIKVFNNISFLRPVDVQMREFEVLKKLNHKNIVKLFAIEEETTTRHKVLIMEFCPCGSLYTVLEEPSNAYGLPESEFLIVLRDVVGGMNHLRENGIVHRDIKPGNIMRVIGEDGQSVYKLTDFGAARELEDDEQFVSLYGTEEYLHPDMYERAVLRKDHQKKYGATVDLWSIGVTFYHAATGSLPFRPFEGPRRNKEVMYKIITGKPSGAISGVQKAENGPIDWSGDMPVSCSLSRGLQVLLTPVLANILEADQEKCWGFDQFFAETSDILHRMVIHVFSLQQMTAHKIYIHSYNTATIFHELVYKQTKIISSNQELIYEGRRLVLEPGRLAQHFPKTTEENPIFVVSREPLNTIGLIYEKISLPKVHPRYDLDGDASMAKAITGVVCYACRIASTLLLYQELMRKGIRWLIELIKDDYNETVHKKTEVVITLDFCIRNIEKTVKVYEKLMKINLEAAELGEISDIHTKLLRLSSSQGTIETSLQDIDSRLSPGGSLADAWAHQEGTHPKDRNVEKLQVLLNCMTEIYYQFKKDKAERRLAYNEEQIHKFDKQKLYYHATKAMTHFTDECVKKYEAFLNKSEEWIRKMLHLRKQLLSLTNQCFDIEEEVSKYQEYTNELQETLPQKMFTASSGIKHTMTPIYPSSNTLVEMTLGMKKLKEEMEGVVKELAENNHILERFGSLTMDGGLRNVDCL
Particulars: TBK1; 1 uM; read-out: Percent Control (%). The essentials:
as §1

In assay [3] the target is T3, scanMAX Kinase assay panel (Homo sapiens, UniProt Q9HBY8).
T3 construct: purchased DiscoverX
T3 sequence (Q9HBY8 1-367): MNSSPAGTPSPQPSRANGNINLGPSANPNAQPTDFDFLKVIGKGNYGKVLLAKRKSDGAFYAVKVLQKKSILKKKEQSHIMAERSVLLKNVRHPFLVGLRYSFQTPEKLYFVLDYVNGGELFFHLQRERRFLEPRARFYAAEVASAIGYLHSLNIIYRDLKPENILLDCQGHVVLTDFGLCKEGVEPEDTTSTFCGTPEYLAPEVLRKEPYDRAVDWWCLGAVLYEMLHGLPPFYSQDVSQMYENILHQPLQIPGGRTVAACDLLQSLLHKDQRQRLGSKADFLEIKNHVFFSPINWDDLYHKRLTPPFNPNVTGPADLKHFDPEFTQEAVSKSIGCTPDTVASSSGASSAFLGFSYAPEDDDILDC
Particulars: SGK2; 1 uM; read-out: Percent Control (%). The essentials: as §1

Assay [4] has as its target T4, scanMAX Kinase assay panel (Homo sapiens, UniProt Q96Q40).
T4 construct: purchased DiscoverX
Particulars: PFTAIRE2; 1 uM; read-out: Percent Control (%). The essentials:
as §1

Assay [5] has as its target T5, scanMAX Kinase assay panel (Homo sapiens, UniProt P16591).
T5 construct: purchased DiscoverX
As to conditions: FER; 1 uM; read-out: Percent Control (%). The essentials:
as §1

The target in assay [6] is T6, scanMAX Kinase assay panel (Homo sapiens, UniProt Q02156).
T6 construct: purchased DiscoverX
T6 sequence (Q02156 1-737): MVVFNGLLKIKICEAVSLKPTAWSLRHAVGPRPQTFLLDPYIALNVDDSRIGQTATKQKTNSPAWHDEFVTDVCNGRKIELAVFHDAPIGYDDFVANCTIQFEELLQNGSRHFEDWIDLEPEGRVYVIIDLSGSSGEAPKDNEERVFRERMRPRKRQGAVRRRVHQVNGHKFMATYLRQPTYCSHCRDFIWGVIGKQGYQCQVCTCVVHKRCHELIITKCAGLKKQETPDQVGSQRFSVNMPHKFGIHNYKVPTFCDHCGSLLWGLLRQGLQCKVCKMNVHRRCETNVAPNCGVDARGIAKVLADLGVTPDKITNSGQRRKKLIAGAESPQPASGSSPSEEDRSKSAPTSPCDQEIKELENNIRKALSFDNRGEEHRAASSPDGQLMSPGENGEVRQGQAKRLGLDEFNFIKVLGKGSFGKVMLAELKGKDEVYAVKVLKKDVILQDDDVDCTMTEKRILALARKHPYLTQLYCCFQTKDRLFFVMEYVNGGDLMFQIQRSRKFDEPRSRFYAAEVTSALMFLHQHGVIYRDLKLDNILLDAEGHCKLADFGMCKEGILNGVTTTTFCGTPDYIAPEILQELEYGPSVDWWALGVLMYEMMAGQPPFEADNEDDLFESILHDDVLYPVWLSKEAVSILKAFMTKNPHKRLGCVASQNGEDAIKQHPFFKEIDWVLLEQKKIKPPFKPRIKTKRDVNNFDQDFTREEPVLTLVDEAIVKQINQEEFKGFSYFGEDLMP
As to conditions: PRKCE; 1 uM; read-out: Percent Control (%). The essentials: as §1

The target in assay [7] is T7, scanMAX Kinase assay panel (Homo sapiens, UniProt Q86Z02).
T7 construct: purchased DiscoverX
T7 sequence (Q86Z02 whole entry): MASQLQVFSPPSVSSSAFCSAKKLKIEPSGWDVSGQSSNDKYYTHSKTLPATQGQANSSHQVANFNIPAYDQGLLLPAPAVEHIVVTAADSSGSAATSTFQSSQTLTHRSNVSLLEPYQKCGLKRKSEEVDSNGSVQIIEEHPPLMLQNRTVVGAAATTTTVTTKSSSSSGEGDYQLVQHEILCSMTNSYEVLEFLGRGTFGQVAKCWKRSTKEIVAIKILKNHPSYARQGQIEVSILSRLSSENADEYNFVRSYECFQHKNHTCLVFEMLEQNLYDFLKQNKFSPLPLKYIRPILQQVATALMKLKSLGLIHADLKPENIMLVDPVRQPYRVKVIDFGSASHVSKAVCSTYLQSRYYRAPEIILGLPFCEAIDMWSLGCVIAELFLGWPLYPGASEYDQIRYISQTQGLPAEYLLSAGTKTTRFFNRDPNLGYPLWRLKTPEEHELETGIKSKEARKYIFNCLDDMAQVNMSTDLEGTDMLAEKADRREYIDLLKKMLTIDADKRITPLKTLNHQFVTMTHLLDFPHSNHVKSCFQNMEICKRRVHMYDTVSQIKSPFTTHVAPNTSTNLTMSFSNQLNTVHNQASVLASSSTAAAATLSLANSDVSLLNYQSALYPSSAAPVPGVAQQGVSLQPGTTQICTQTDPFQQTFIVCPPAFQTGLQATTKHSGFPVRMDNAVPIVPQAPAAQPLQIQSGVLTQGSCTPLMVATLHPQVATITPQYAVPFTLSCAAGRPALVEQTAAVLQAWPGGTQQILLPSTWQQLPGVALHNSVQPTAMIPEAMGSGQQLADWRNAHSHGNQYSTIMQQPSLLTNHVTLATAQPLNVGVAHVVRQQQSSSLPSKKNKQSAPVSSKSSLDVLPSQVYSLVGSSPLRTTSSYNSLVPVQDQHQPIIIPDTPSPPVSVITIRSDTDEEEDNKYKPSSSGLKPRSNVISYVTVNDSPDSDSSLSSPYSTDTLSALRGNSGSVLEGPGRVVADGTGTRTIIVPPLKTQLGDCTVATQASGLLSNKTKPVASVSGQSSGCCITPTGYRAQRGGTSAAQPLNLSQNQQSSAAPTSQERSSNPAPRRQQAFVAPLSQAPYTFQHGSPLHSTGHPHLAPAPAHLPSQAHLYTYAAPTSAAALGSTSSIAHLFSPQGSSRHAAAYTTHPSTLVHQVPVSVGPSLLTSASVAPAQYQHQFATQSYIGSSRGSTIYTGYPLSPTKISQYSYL
As to conditions: HIPK1; 1 uM; read-out: Percent Control (%). The essentials: as §1

Assay [8] concerns the target T8, scanMAX Kinase assay panel (Homo sapiens, UniProt Q8IY84).
T8 construct: purchased DiscoverX
As to conditions: NIM1; 1 uM; read-out: Percent Control (%). The essentials:
as §1

Assay [9] addresses T9, scanMAX Kinase assay panel (Homo sapiens, UniProt P51617).
T9 construct: purchased DiscoverX
Particulars: IRAK1; 1 uM; read-out: Percent Control (%). The essentials: as §1

T5 sequence (P16591 whole entry): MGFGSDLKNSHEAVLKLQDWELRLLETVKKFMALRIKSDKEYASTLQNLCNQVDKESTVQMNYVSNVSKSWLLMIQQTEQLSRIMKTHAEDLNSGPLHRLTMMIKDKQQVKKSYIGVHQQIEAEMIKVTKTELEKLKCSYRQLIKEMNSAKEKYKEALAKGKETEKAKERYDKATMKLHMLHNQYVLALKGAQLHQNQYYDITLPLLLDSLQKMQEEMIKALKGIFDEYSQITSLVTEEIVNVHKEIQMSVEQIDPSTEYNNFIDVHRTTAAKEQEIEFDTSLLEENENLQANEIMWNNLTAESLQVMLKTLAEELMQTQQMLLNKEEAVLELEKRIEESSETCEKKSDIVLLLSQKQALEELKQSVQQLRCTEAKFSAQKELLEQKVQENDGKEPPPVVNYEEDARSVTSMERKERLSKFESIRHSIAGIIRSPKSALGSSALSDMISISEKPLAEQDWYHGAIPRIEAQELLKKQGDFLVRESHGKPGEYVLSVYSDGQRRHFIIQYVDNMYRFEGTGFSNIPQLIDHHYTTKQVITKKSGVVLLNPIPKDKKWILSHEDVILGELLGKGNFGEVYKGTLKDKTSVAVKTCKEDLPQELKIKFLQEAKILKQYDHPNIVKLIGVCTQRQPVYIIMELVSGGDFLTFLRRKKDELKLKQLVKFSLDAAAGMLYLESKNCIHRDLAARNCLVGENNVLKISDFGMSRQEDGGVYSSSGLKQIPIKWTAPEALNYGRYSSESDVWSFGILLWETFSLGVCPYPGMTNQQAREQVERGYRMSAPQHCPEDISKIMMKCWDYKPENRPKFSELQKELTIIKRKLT
T4 sequence (Q96Q40 whole entry): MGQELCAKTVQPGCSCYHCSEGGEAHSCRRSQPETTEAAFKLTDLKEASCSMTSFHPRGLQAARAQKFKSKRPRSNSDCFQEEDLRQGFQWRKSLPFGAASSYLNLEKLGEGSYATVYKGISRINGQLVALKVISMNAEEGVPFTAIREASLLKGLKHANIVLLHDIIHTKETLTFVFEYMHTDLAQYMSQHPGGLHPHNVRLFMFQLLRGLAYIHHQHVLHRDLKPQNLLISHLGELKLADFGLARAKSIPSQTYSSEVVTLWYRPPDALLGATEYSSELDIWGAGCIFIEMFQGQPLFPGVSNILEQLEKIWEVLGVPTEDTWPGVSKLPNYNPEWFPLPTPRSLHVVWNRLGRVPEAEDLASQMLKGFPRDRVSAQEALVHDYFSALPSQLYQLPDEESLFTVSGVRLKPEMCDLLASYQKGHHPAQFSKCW
T1 sequence (P21127 whole entry): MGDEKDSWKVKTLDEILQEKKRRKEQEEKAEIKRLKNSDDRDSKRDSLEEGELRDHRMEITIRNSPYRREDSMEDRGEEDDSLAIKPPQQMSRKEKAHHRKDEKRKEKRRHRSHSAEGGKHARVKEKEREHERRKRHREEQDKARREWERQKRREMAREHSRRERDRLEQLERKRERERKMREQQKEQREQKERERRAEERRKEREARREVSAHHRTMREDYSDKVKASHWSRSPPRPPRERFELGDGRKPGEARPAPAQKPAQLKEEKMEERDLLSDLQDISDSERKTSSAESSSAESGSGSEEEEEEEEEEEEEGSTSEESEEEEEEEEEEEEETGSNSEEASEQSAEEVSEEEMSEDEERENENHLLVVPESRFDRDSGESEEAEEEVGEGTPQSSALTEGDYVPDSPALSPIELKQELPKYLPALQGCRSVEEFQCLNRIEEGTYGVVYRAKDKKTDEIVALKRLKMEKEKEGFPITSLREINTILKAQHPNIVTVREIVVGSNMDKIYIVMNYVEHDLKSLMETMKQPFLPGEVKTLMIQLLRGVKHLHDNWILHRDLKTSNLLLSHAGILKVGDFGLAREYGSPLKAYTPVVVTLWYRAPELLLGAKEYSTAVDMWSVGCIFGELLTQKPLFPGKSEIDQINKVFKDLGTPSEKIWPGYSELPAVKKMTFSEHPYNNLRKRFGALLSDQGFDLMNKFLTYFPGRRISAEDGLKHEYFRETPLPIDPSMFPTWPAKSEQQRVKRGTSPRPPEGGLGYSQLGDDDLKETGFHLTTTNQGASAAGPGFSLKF
T8 sequence (Q8IY84 whole entry): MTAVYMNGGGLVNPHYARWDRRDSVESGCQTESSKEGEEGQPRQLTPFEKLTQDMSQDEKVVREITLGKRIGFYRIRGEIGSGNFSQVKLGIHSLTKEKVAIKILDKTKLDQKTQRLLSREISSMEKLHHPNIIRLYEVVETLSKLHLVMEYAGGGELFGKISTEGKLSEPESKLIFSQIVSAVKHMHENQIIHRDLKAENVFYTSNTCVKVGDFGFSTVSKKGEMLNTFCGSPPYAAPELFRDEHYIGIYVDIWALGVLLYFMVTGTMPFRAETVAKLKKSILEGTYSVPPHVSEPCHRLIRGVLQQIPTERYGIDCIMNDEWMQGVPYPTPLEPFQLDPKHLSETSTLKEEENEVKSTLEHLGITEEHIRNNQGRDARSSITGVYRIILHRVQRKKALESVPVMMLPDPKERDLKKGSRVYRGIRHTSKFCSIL
T9 sequence (P51617 whole entry): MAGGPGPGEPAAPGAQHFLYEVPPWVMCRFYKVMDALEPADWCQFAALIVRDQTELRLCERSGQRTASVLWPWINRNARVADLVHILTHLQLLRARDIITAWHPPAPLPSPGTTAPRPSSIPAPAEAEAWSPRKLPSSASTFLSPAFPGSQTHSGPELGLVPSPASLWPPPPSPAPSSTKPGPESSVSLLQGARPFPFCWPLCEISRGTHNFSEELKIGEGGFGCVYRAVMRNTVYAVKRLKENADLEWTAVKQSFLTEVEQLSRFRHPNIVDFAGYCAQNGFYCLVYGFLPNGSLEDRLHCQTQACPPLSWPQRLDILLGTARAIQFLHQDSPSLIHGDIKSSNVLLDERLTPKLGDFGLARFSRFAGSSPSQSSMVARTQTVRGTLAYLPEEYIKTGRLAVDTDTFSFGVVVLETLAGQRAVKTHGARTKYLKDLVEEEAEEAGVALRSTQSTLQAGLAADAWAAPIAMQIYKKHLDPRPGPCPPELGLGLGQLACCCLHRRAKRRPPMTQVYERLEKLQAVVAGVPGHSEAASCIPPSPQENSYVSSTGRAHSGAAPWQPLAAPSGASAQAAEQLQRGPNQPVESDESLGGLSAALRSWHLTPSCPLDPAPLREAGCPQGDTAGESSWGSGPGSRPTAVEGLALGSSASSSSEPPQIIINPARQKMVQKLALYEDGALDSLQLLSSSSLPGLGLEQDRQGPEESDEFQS

For `Cc1ccc(C(=O)Nc2ccc(CN3CCN(C)CC3)c(C(F)(F)F)c2)cc1C#Cc1cnc2c(Nc3cnn(C)c3)cccn12` [Example 1, 4-methyl-3-((8-((1-methyl-1H-pyrazol-4-yl)amino)imidazo[1,2-a]pyridin-3-yl)ethynyl)-N-(4-((4-methylpiperazin-1-yl)methyl)-3-(trifluoromethyl)phenyl)benzamide], the remaining binding at 1 µM in assay [1] amounted to 20%; in [2], 68%; in assay [3], 84%; in [4], 6%; in assay [5], 1%; in assay [6], 67%. Also, the remaining binding at 1 µM in assay [7] stood at 51%; in assay [8], 92%; in assay [9] it was 6%.

For the compound `Cc1cn(-c2cc(NC(=O)c3ccc(C)c(C#Cc4cnc5c(Nc6cnn(C)c6)cccn45)c3)cc(C(F)(F)F)c2)cn1` [Example 12, 4-methyl-N-(3-(4-methyl-1H-imidazol-1-yl)-5-(trifluoromethyl)phenyl)-3-((8-((1-methyl-1H-pyrazol-4-yl)amino)imidazo[1,2-a]pyridin-3-yl)ethynyl)benzamide], the remaining binding at 1 µM amounted to 80% in assay [1]; 84% in assay [2]; 100% in assay [3]; 75% in assay [4]; 40% in assay [5]; 71% in [6]. For the same compound, the remaining binding at 1 µM in assay [7] was 71%; in assay [8], 100%; in assay [9] it was 100%.

Consider `Cc1ccc(NC(=O)C2(C(=O)Nc3ccc(F)cc3)CC2)cc1C#Cc1cnc2c(Nc3cnn(C(C)C)c3)cccn12` [Example 78], for which the remaining binding at 1 µM was 100% in assay [1]; 100% in assay [2]; 100% in [3]; 100% in assay [4]; 100% in assay [5]; 90% in assay [6]. The remaining binding at 1 µM in [7] is 91%; in assay [8], 100%; in [9], 100%.

The values are drawn from US10870647B2, “Imidazopyridine derivative, method for preparing same, and pharmaceutical composition containing same as active ingredient for preventing or treating cancer” (DAEGU-GYEONGBUK MEDICAL INNOVATION FOUNDATION, priority 2016, dated 2020).
